From ChEMBL document CHEMBL3885861, “Open TG-GATES”

Organism: Rattus norvegicus
Assay: Open TG-GATES - Regimen: Daily Repeat
Type: toxicity, organism-based, Sprague-Dawley
Design: regimen Daily Repeat, gender Male, age 6 weeks
Conditions: in vivo, po, 20 mg/kg, route gavage, dose level Middle; for APTT / Bas / Eos / Fbg / Hb / Ht / Lym / MCH / MCHC / MCV / Mono / Neu / PT / Plat / RBC / Ret / WBC: tissue Blood; for KIDNEY_TOTAL: tissue Kidney; for LIVER: tissue Liver; for A/G / ALP / ALT / AST / BUN / CRE / Ca / Cl / DBIL / GLC / IP / K / LDH / Na / PL / RALB / TBIL / TC / TG / TP / gamma-GTP: tissue Plasma

What does the source list for `CN(CCOc1ccc(CC2SC(=O)NC2=O)cc1)c1ccccn1.O=C(O)/C=C\C(=O)O` (centres undefined) [ROSIGLITAZONE MALEATE]?
TERMINAL_BW (72 h, time 3 day): 255.1 g; APTT (72 h, time 3 day): 16.4 s; Bas (72 h, time 3 day): 0%; Eos (72 h, time 3 day): 0.8%; Fbg (72 h, time 3 day): 231.2 mg/dL; Hb (72 h, time 3 day): 12.7 g/dL; Ht (72 h, time 3 day): 38.6%; Lym (72 h, time 3 day): 75.2%; MCH (72 h, time 3 day): 21 pg; MCHC (72 h, time 3 day): 32.8%; MCV (72 h, time 3 day): 64 fL; Mono (72 h, time 3 day): 8%; Neu (72 h, time 3 day): 16.6%; PT (72 h, time 3 day): 11.7 s; Plat (72 h, time 3 day): 136.2 x10_4/uL; RBC (72 h, time 3 day): 603.2 x10_4/ul; Ret (72 h, time 3 day): 7%; WBC (72 h, time 3 day): 83.2 x10_2/uL; KIDNEY_TOTAL (72 h, time 3 day): 0.7 g; LIVER (72 h, time 3 day): 12.7 g; A/G (72 h, time 3 day): 2.3; ALP (72 h, time 3 day): 1378.6 IU/L; ALT (72 h, time 3 day): 38.8 IU/L; AST (72 h, time 3 day): 67.8 IU/L; BUN (72 h, time 3 day): 16.4 mg/dL; CRE (72 h, time 3 day): 0.2 mg/dL; Ca (72 h, time 3 day): 11.7 mg/dL; Cl (72 h, time 3 day): 103.6 meq/L; DBIL (72 h, time 3 day): 0.012 mg/dL; GLC (72 h, time 3 day): 187.4 mg/dL; IP (72 h, time 3 day): 7.6 mg/dL; K (72 h, time 3 day): 4.3 meq/L; LDH (72 h, time 3 day): 93.4 IU/L; Na (72 h, time 3 day): 140 meq/L; PL (72 h, time 3 day): 147.4 mg/dL; RALB (72 h, time 3 day): 3.9 g/dL; TBIL (72 h, time 3 day): 0.04 mg/dL; TC (72 h, time 3 day): 80.4 mg/dL; TG (72 h, time 3 day): 79.6 mg/dL; TP (72 h, time 3 day): 5.6 g/dL; gamma-GTP (72 h, time 3 day): 0 IU/L; TERMINAL_BW ([…], time 7 day): 281.6 g; TERMINAL_BW ([…], time 14 day): 355.9 g; TERMINAL_BW ([…], time 28 day): 432 g; APTT ([…], time 7 day): 15.7 s; Bas ([…], time 7 day): 0%; Eos ([…], time 7 day): 0.8%; Fbg ([…], time 7 day): 225.6 mg/dL; Hb ([…], time 7 day): 12.6 g/dL; Ht ([…], time 7 day): 38.6%; Lym ([…], time 7 day): 76%; MCH ([…], time 7 day): 20.7 pg; MCHC ([…], time 7 day): 32.5%; MCV ([…], time 7 day): 63.5 fL; Mono ([…], time 7 day): 6%; Neu ([…], time 7 day): 17.4%; PT ([…], time 7 day): 11.9 s; Plat ([…], time 7 day): 123 x10_4/uL; RBC ([…], time 7 day): 608.4 x10_4/ul; Ret ([…], time 7 day): 6.5%; WBC ([…], time 7 day): 87.6 x10_2/uL; APTT ([…], time 14 day): 15.9 s; Bas ([…], time 14 day): 0%; Eos ([…], time 14 day): 0.8%; Fbg ([…], time 14 day): 240.4 mg/dL; Hb ([…], time 14 day): 13 g/dL; Ht ([…], time 14 day): 39.7%; Lym ([…], time 14 day): 79.8%; MCH ([…], time 14 day): 20.7 pg; MCHC ([…], time 14 day): 32.8%; MCV ([…], time 14 day): 63 fL; Mono ([…], time 14 day): 6%; Neu ([…], time 14 day): 13.6%; PT ([…], time 14 day): 11.6 s; Plat ([…], time 14 day): 110.8 x10_4/uL; RBC ([…], time 14 day): 631.8 x10_4/ul; Ret ([…], time 14 day): 3.7%; WBC ([…], time 14 day): 108.6 x10_2/uL; APTT ([…], time 28 day): 15.9 s; Bas ([…], time 28 day): 0%; Eos ([…], time 28 day): 1%; Fbg ([…], time 28 day): 252.2 mg/dL; Hb ([…], time 28 day): 13.9 g/dL; Ht ([…], time 28 day): 42.4%; Lym ([…], time 28 day): 81.8%; MCH ([…], time 28 day): 19.2 pg; MCHC ([…], time 28 day): 32.8%; MCV ([…], time 28 day): 58.6 fL; Mono ([…], time 28 day): 6%; Neu ([…], time 28 day): 11%; PT ([…], time 28 day): 11.9 s; Plat ([…], time 28 day): 110 x10_4/uL; RBC ([…], time 28 day): 725 x10_4/ul; Ret ([…], time 28 day): 2.6%; WBC ([…], time 28 day): 105 x10_2/uL; KIDNEY_TOTAL ([…], time 7 day): 0.8 g; KIDNEY_TOTAL ([…], time 14 day): 0.8 g; KIDNEY_TOTAL ([…], time 28 day): 0.8 g; LIVER ([…], time 7 day): 13.5 g; LIVER ([…], time 14 day): 16.1 g; LIVER ([…], time 28 day): 16.8 g; A/G ([…], time 7 day): 2.1; ALP ([…], time 7 day): 1428.6 IU/L; ALT ([…], time 7 day): 36.2 IU/L; AST ([…], time 7 day): 67.6 IU/L; BUN ([…], time 7 day): 18.8 mg/dL; CRE ([…], time 7 day): 0.4 mg/dL; Ca ([…], time 7 day): 11.3 mg/dL; Cl ([…], time 7 day): 104.8 meq/L; DBIL ([…], time 7 day): 0.01 mg/dL; GLC ([…], time 7 day): 171.2 mg/dL; IP ([…], time 7 day): 7.8 mg/dL; K ([…], time 7 day): 4.3 meq/L; LDH ([…], time 7 day): 92 IU/L; Na ([…], time 7 day): 141.2 meq/L; PL ([…], time 7 day): 134.8 mg/dL; RALB ([…], time 7 day): 3.8 g/dL; TBIL ([…], time 7 day): 0.032 mg/dL; TC ([…], time 7 day): 71.8 mg/dL; TG ([…], time 7 day): 55.2 mg/dL; TP ([…], time 7 day): 5.7 g/dL; gamma-GTP ([…], time 7 day): 0.4 IU/L; A/G ([…], time 14 day): 2; ALP ([…], time 14 day): 1500.8 IU/L; ALT ([…], time 14 day): 35.2 IU/L; AST ([…], time 14 day): 64.2 IU/L; BUN ([…], time 14 day): 19 mg/dL; CRE ([…], time 14 day): 0.4 mg/dL; Ca ([…], time 14 day): 11.1 mg/dL; Cl ([…], time 14 day): 106.4 meq/L; DBIL ([…], time 14 day): 0.01 mg/dL; GLC ([…], time 14 day): 188 mg/dL; IP ([…], time 14 day): 7.3 mg/dL; K ([…], time 14 day): 4.2 meq/L; LDH ([…], time 14 day): 63 IU/L; Na ([…], time 14 day): 143.8 meq/L; PL ([…], time 14 day): 134.4 mg/dL; RALB ([…], time 14 day): 3.8 g/dL; TBIL ([…], time 14 day): 0.032 mg/dL; TC ([…], time 14 day): 73.8 mg/dL; TG ([…], time 14 day): 69.4 mg/dL; TP ([…], time 14 day): 5.6 g/dL; gamma-GTP ([…], time 14 day): 1 IU/L; A/G ([…], time 28 day): 1.8; ALP ([…], time 28 day): 1013.6 IU/L; ALT ([…], time 28 day): 34 IU/L; AST ([…], time 28 day): 61.2 IU/L; BUN ([…], time 28 day): 17.8 mg/dL; CRE ([…], time 28 day): 0.4 mg/dL; Ca ([…], time 28 day): 10.6 mg/dL; Cl ([…], time 28 day): 105.8 meq/L; DBIL ([…], time 28 day): 0.01 mg/dL; GLC ([…], time 28 day): 180.4 mg/dL; IP ([…], time 28 day): 6.5 mg/dL; K ([…], time 28 day): 4.2 meq/L; LDH ([…], time 28 day): 87.2 IU/L; Na ([…], time 28 day): 140.8 meq/L; PL ([…], time 28 day): 122.8 mg/dL; RALB ([…], time 28 day): 3.7 g/dL; TBIL ([…], time 28 day): 0.032 mg/dL; TC ([…], time 28 day): 64.6 mg/dL; TG ([…], time 28 day): 65.2 mg/dL; TP ([…], time 28 day): 5.8 g/dL; gamma-GTP ([…], time 28 day): 0.4 IU/L
